Values joined by “and” are separate entries in the source; they are usually repeats but may differ in a detail not shown here. Equal entries are not always repeated. Where two headings read alike, the source gives them in different places.
Columns and labels:
[1] = test system: cotton (COTT); assay: Multi-crop greenhouse test, COUNTER 15G and safener PPI, herbicide POE (Examples 62-64; Tables 61-63); assay type: in vivo; parameters: dose or concentration left out as unconfirmed; settings: Gossypium hirsutum, Table 63, Biocide No. 1 8.96 Kg/Ha, antidote 4.48 Kg/Ha PPI where in label
Description: (§1) Tests according to this invention in various crops indicate widespread application of the invention. In Examples 62-66 below are described tests with a variety of herbicides contacted with COUNTER® 15G in the presence and absence of MON-7400 (Antidote No. 12); MON-13900 (No. 1); MON-4660 (No. 16) and flurazole (No. 16). Those tests were conducted according to Procedures IV or V described above and illustrated further in other foregoing examples. Plants used in all tests were, for crops (as abbreviated in parentheses); cotton (COTT); soybean (SOBE); CORN, grain sorghum (GRSO); wheat (WHEA) and RICE, and the weeds giant foxtail (GIFT) and velvetleaf (VELE). The data in the tables below represent averages of two replications.
(§2) In this test the crops and weeds were planted 1.3 cm deep in 13.7 cm X 27.7 cm pans containing Dupo silt loam soil. The test safeners were applied in acetone solution and COUNTER 15G as dry granules to soil cover layers and incorporated by shaking in a bag. Treated cover layers were placed on seeded pans which were transferred to greenhouse benches and subirrigated. Herbicide was applied POE six (6) days after PPI initiation and observations of plant injury made ten (10) days later; results are shown in Table 61. The herbicide used in this example was BEACON (No. 8).
(§3) The test procedure described in Example 62 was repeated using ACCENT® (Herbicide No. 7) as the herbicide; the biocide and safeners were the same.

[2] = test system: wheat (WHEA); assay: Multi-crop greenhouse test, herbicide POE (Examples 62-64; Tables 61-63); assay type: in vivo; parameters: dose or concentration left out as unconfirmed; settings: Triticum aestivum, Table 63, Biocide No. 1 8.96 Kg/Ha, antidote 4.48 Kg/Ha PPI where in label
Description: as §1, §2, §3

[3] = test system: Giant foxtail (GIFT); assay: as above; assay type: in vivo; parameters: dose or concentration left out as unconfirmed; settings: Setaria faberi, Table 63, Biocide No. 1 8.96 Kg/Ha, antidote 4.48 Kg/Ha PPI where in label
Description: as §1, §2, §3

[4] = test system: soybean (SOBE); assay: as above; assay type: in vivo; parameters: dose or concentration left out as unconfirmed; settings: Glycine max, Table 63, Biocide No. 1 8.96 Kg/Ha, antidote 4.48 Kg/Ha PPI where in label
Description: as §1, §2, §3

[5] = test system: Velvetleaf (VELE); assay: as above; assay type: in vivo; parameters: dose or concentration left out as unconfirmed; settings: Abutilon theophrasti, Table 63, Biocide No. 1 8.96 Kg/Ha, antidote 4.48 Kg/Ha PPI where in label
Description: as §1, §2, §3

[6] = test system: RICE; assay: as above; assay type: in vivo; parameters: dose or concentration left out as unconfirmed; settings: Oryza sativa, Table 63, Biocide No. 1 8.96 Kg/Ha, antidote 4.48 Kg/Ha PPI where in label
Description: as §1, §2, §3

[7] = test system: grain sorghum (GRSO); assay: as above; assay type: in vivo; parameters: dose or concentration left out as unconfirmed; settings: Biocide No. 1 8.96 Kg/Ha, antidote 4.48 Kg/Ha PPI where in label
Description: as §1, §2, §3

[8] = test system: Corn; assay: as above; assay type: in vivo; parameters: inhibition: dose or concentration left out as unconfirmed; settings: Zea mays, Table 63, Biocide No. 1 8.96 Kg/Ha, antidote 4.48 Kg/Ha PPI where in label
Description: as §1, §2, §3

[9] = test system: Shattercane (SHCA); assay type: in vivo
[10] = test system: Corn; assay: Field trials, PPI, PRE and POE herbicide applications with terbufos (Example 7); assay type: in vivo; settings: mean of five locations, soil-applied insecticide prior to planting
Text: This example summarizes the results of one series of field trials from a plurality of locations and soil types wherein test chemicals were applied in various modes including pre-plant incorporated (PPI), post emergence (POE) and preemergence (PRE) with and without a safener (antidote). Test Chemicals were Herbicide Nos 1, 2, 3 and 7-9; Insecticide No. 1 and Antidote No. 1.
In these trials Insecticide No. 1 (terbufos) was T-banded or furrow applied at labeled rates prior to planting corn. PPI herbicide treatments were applied prior to insecticide applications; PRE treatments were applied after the insecticide application either prior to or after seeding the corn. POE herbicide applications were made at 2 corn-growth stages, i.e., early post (EP) at the 2-3 leaf stage and late post (LP) at the 4-7 leaf stage. Plots were small plot with 3 replications in a randomized complete block design. In the PRE and PPI herbicide treatments, Antidote No. 1 was applied as a tankmix in both treatments. In the POE herbicide treatments, that antidote was applied as a tank mix with the herbicide at the EP and LP stages.

[11] = test system: Corn
[12] = test system: Velvetleaf (VELE); assay type: in vivo, Abutilon theophrasti
[13] = Herb. No. 18 (PURSUIT) 0.009 Kg/Ha POE
[14] = Herb. No. 18 (PURSUIT) 0.035 Kg/Ha POE
[15] = Herb. No. 18 (PURSUIT) 0.14 Kg/Ha POE
[16] = Herbicide No. 7 0.28 Kg/Ha POE alone, 13 days after planting
[17] = Herbicide No. 7 0.28 POE + Biocide No. 1 8.96 Kg/Ha PPI, 13 days after planting
[18] = Herbicide No. 7 alone, POE 5 DAP, observed 13 DAP
[19] = Table 14: no antidote, Herbicide No. 7 0.84 Kg/Ha POE and/or Biocide No. 2 8.96 Kg/Ha PPI, per label, 13 days after planting
[20] = Table 50, Herbicide No. 7 0.56 Kg/Ha POE, where applied Biocide No. 8 8.96 kg/Ha and antidote 4.48 Kg/Ha PPI, observed 9 days after POE
[21] = no antidote, […], 13 days after planting

In the case of `CCc1cnc(C2=NC(C)(C(C)C)C(=O)N2)c(C(=O)O)c1` (stereo not shown) [Herb. No. 18], the inhibition [1, 13] is reported as 40%, the inhibition [1, 14] is reported as 45% and the inhibition [1, 15] is reported as 50%. It also gave an inhibition [2, 13] of 0%, an inhibition [2, 14] of 20% and an inhibition [2, 15] of 35%. The inhibition [3, 13] was 60%, the inhibition [3, 14] was 80% and the inhibition [3, 15] was 80%. The inhibition [4, 13] was 5%, the inhibition [4, 14] was 10% and the inhibition [4, 15] was 10%. For the same molecule, the inhibition [5, 13] was 75%, the inhibition [5, 14] was 95% and the inhibition [5, 15] was 100%. It also gave an inhibition [6, 13] of 20%, an inhibition [6, 14] of 45% and an inhibition [6, 15] of 60%. The inhibition ([7]; Table 63, Herb. No. 18 (PURSUIT) 0.009 Kg/Ha POE) was 60%, the inhibition ([7]; Table 63, Herb. No. 18 (PURSUIT) 0.035 Kg/Ha POE) was 65% and the inhibition ([7]; Table 63, Herb. No. 18 (PURSUIT) 0.14 Kg/Ha POE) was 75%. For the same molecule, the inhibition [8, 13] was 5%, the inhibition [8, 14] was 25% and the inhibition [8, 15] was 40%.
For `COc1cc(OC)nc(NC(=O)NS(=O)(=O)c2ncccc2C(=O)N(C)C)n1` [Herbicide No. 7, reference compound], the “% Inhibition SHCA” value [9, 16] was 70%, the “% Inhibition SHCA” value [9, 17] was 75% and the “% Inhibition SHCA” value [9, 18] was 75%. For the same molecule, the “% Inhibition SHCA” value [9, 19] was 75%, the “% Inhibition SHCA” value [9, 20] was 75% and the “% Inhibition SHCA” value ([9]; in vivo) was 75%. The “% Inhibition SHCA” value [9, 21] was 75%, the “interaction with Insecticide No. 1 after POE herbicide” value [10] was “Significant increased growth reduction” and the “safety to corn” value ([11]; ACCENT alone, no insecticide, 0.28 to 0.84 kg/ha) was “completely safe”. The “% Inhibition Corn” value [11, 16] was 0%, the “% Inhibition Corn” value [11, 17] was 60% and the “% Inhibition Corn” value [11, 18] was 0%. For the same molecule, the “% Inhibition Corn” value [11, 19] was 0%, the “% Inhibition Corn” value [11, 20] was 10% and the “% Inhibition Corn” value [11, 21] was 0%. The “% Inhibition VELE” value [12, 16] was 60%, the “% Inhibition VELE” value [12, 17] was 65% and the “% Inhibition VELE” value [12, 18] was 70%. For the same molecule, the “% Inhibition VELE” value [12, 19] was 65%, the “% Inhibition VELE” value [12, 20] was 80% and the “% Inhibition VELE” value ([12]; in vivo) was 60% and 75%. For the same molecule, the “% Inhibition VELE” value [12, 21] was 60%.

— patent publication EP0565593B1, “REDUCING PESTICIDAL INTERACTIONS IN CROPS” (priority 1990, dated 1992)
